Results as given in US7598033B2, “Method and devices for running reactions on a target plate for MALDI mass spectrometry” (University of Pennsylvania, priority 2003, dated 2009).

Assays:
[1] = target: thrombin (Homo sapiens, UniProt P00734); test: Nanoliter thrombin/fibrinogen reaction on MALDI target, MS detection of fibrinopeptides A and B; format: biochemical; conditions: benzamidine in the nanoliter reaction, FIG. 26B
[2] = Fluorogenic substrate microarray, aerosol deposition of enzyme: boc-VPR-MCA; format: biochemical; conditions: after spray application
Description: Well characterized for over 30 years, serine proteases of the coagulation pathway in plasma were selected as a system in which to monitor the delivery of complex enzyme fluids to the microassay. Fluorogenic substrates in DMSO/glycerol were assayed to a glass slide.
After spray application, thrombin caused a 65-fold increase in fluorescence activity after conversion of the boc-VPR-MCA substrate. […] Aerosol deposition of pure tPA (10 μM) to a sensing array caused significant cleavage of the tPA, thrombin and Xa substrates, resulting in fluorescence that was 18- to 20-fold above background.

Row | inhibition of thrombin release of fibrinopeptides A and B from fibrinogen [1] | Molecule | increase in fluorescence activity after conversion of the boc-VPR-MCA substrate [2]
1 | completely inhibited | N=C(N)c1ccccc1 [Benzamidine] | –
2 | – | thrombin | 65 fold
